Values joined by “and” are separate entries in the source; they are usually repeats but may differ in a detail not shown here. Equal entries are not always repeated.
What was measured:
Assay type in all cases: cell-based
Parameters in all cases: GPCRome screening signal at PTGIR / GPCRome screening signal at PTH1R / GPCRome screening signal at PTH2R / GPCRome screening signal at QRFP / GPCRome screening signal at RXFP2 / GPCRome screening signal at RXFP3 / GPCRome screening signal at RXFP4 / GPCRome screening signal at S1PR2 / GPCRome screening signal at S1PR3 / GPCRome screening signal at S1PR4 / GPCRome screening signal at S1PR5 / GPCRome screening signal at SCTR / GPCRome screening signal at SSTR2 / GPCRome screening signal at SSSTR / GPCRome screening signal at SSTR4 / GPCRome screening signal at SSTR5 / GPCRome screening signal at SUCNR1 / GPCRome screening signal at TA1 / GPCRome screening signal at TAAR2 / GPCRome screening signal at TAAR5 / GPCRome screening signal at TAAR6 / GPCRome screening signal at TAAR8 / GPCRome screening signal at TACR1 / GPCRome screening signal at TACR2 / GPCRome screening signal at TACR3 / GPCRome screening signal at TBXA2R / GPCRome screening signal at TSHR / GPCRome screening signal at UTS2R / GPCRome screening signal at VIPR2 / GPCRome screening signal at GPR68 no V2 Tail / GPCRome screening signal at GRM2 / GPCRome screening signal at GRM3: reference not given here
320 non-olfactory GPCRs [1] = target: 320 non-olfactory GPCRs (Homo sapiens, UniProt Q9H228); details: receptor S1PR5
320 non-olfactory GPCRs (Homo sapiens, UniProt Q9H228), sequence (Q9H228 whole entry): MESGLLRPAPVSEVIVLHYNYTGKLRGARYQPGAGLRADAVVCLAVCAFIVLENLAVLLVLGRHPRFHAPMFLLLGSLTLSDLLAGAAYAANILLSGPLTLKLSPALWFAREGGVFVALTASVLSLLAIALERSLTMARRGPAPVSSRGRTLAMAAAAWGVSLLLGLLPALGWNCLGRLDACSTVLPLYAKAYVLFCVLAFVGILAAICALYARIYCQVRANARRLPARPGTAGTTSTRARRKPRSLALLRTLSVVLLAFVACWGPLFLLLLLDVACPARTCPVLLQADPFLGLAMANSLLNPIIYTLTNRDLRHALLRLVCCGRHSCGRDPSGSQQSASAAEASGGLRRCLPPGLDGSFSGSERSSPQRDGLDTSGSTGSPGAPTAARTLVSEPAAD

320 non-olfactory GPCRs [2] = target: T1, 320 non-olfactory GPCRs (Homo sapiens, UniProt O95136); details: receptor S1PR2
T1 construct: expressed in transfected cells; host or cells: HTLA cells
T1 sequence (O95136 whole entry): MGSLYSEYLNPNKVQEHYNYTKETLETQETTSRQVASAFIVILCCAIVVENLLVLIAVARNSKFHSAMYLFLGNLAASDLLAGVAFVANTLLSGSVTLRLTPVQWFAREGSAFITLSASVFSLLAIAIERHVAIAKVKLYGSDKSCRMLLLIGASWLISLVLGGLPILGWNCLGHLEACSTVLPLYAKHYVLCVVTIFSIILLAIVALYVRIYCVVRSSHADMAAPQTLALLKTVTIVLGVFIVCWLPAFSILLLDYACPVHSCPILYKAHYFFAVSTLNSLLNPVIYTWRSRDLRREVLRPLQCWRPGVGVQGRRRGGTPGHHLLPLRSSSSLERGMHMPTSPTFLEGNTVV

320 non-olfactory GPCRs [3] = target: T2, 320 non-olfactory GPCRs (Homo sapiens, UniProt P16473); details: receptor TSHR
T2 construct: expressed in transfected cells; host or cells: HTLA cells
T2 sequence (P16473 21-764): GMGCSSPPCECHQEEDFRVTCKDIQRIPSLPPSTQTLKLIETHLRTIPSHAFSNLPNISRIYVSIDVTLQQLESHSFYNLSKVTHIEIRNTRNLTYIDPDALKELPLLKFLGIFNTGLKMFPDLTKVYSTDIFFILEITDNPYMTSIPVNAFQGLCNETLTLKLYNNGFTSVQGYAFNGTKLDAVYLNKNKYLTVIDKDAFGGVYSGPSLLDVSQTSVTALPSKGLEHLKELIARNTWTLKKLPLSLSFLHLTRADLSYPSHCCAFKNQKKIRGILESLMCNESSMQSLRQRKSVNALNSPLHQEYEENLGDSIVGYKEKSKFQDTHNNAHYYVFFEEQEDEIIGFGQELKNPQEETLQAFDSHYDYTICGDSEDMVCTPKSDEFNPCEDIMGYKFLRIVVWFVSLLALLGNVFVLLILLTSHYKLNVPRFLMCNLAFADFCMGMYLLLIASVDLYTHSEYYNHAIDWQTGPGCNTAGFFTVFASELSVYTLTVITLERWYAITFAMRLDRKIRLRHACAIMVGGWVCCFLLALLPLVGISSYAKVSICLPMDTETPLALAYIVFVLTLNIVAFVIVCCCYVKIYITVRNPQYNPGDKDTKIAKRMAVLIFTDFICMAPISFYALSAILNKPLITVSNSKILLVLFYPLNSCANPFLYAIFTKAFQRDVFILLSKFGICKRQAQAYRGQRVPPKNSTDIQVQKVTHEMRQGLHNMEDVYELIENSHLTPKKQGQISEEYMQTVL

320 non-olfactory GPCRs [4] = target: T3, 320 non-olfactory GPCRs (Homo sapiens, UniProt P49190); details: receptor PTH2R
T3 construct: expressed in transfected cells; host or cells: HTLA cells
T3 sequence (P49190 25-550): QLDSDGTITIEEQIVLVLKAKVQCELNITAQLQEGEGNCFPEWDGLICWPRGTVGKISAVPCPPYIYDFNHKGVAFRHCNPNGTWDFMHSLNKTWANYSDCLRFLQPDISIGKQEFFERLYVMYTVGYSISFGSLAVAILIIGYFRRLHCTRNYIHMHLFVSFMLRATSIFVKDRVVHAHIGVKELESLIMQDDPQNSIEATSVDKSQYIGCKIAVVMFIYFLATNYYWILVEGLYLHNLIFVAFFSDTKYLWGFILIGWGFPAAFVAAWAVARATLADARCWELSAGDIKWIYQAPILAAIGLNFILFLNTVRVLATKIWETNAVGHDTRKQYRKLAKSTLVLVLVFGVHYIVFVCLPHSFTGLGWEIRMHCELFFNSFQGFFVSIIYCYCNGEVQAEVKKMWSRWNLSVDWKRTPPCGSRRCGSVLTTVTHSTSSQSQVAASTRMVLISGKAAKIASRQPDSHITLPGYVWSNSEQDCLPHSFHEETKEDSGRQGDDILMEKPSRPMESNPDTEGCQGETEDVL

[5] = Fig_5f, single replicate values
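Throughout, for GPCRome agonism screen response: fold over basal response of each receptor without drug.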

CCOc1ccccc1CCC(C)NCC1(O)CCCCC1.Cl (racemic) [Fig_5f]
GPCRome screening signal at S1PR5 (320 non-olfactory GPCRs [1]; [5]): 0.8048 and 0.6191 and 0.7126 and 0.9361
GPCRome screening signal at S1PR2 (320 non-olfactory GPCRs [2]; [5]): 2.447 and 1.17 and 1.142 and 1.029
GPCRome screening signal at TSHR (320 non-olfactory GPCRs [3]; [5]): 0.6627 and 1.386 and 0.8068 and 1.0471
GPCRome screening signal at PTH2R (320 non-olfactory GPCRs [4]; [5]): 0.8447 and 0.9374 and 0.7725 and 1.472

CCOc1cccc2cc(C(C)NCC3(O)CCCCC3)oc12 (centres unmarked) [O4LE6]
GPCRome agonism screen response (320 non-olfactory GPCRs [1]; replicate values, Fig_4g): 0.6595 and 0.787 and 0.6694 and 0.8628
GPCRome agonism screen response (320 non-olfactory GPCRs [2]; replicate values, Fig_4g): 2.111 and 0.9213 and 3.313 and 1.2731
GPCRome agonism screen response (320 non-olfactory GPCRs [3]; replicate values, Fig_4g): 0.633 and 1.167 and 0.8187 and 0.6635
GPCRome agonism screen response (320 non-olfactory GPCRs [4]; replicate values, Fig_4g): 1.171 and 0.1179 and 1.638 and 1.06
